Results as given in patent US9682954B2, “Phenanthridine derivatives, preparation methods and uses thereof” (Kunming Institute of Botany, The Chinese Academy of Sciences, priority 2013, dated 2017).

Legend:
Wnt signaling pathway = test: Activity assay of the reporter gene (Wnt signaling pathway activation, Wnt3a conditioned medium); type: cell-based
Protocol: After 6 hours, the cells are collected and activities of the report genes are determined.
Activity Assay of the Reporter Gene
HEK293T, HCT116, SW480 or NIH3T3 cells used for activity assay of the reporter gene were inoculated into 24-wells plates respectively 24 hours before transfection then transfected following the above mentioned reference method. The amount of the plasmids used for Transfection was: 20 ng of TOPFlash, NFAT-Luc, or SRF-Luc, and 25 ng of EGFP-C1 (HEK293T); 25 ng of LEF-Luc, 75 ng of LEF1, and 25 ng of EGFP-C1 (NIH3T3); 100 ng of TOPFlash or Fopfllash and 100 ng of EGFP-C1 (HCT116 and SW480). The cells were transfected with other plasmids following experimental requirements, LacZs were added to meet a total content of 250 ng (in RNAi and plasmid co-transfection experiments, 1 μl of siRNA was added when every 100 ng/well of the plasmid was transfected). Wnt3a conditioned medium was added 18 hours after transfection to stimulate the cells for 6-8 hours, the cells were lysed using Boehringer Mannheim Luci-ferase Assay Kit (200 μl/well). Intensity of GFP proteins in cell lysates were determined as internal standards of expression quantity of the cells using fluorescence meter FL600 (BIO-TEK Inc. Winooski, Vt.), and then 20 μl of luciferase substrates were added. Luciferase activity was determined with Micro Lumate Plus (Perkin Elmer Inc. Wellesley, Mass.) luminometer. Finally, the luciferase activity was homogenized using activity of GFP.

Huh7.5 cells = test: in vitro
Protocol: (§1) (1) Toxicity Experiment of the Compound on Huh7.5:
(§2) 100 μL of Huh7.5 cells (1×10^5/ml) was inoculated in 96-wells plates and incubated in an incubator at 37° C. under 5% of CO2 and saturated humidity for 24 hrs. Then different concentration of the compound of the present invention and positive control (VX-950, telaprevir) were added respectively and incubated for a further 72 hrs. 10 μL of MTT (5 mg/mL) was added per well and incubated for another 4 hrs. After the cells were lysed with DMSO, OD570-630 […] was determined on ELIASA. In comparison with OD of the control group, inhibitory rate of each concentration on cell toxicity was calculated, and half toxic concentration of the compound was calculated with Reed-Muench method.

HCV = test: microbe, parasite or virus in culture; type: cell-based, Hepatitis C Virus (HCV); details: Huh7.5 cells infected with HCV, 72 hrs, intracellular HCV RNA by qRT-PCR, Reed-Muench method; read-out: EC50
Protocol: (2) Anti-HCV Activity of the Compound in Cells:
The total RNA was extracted from the cells. The intracellular content of HCV and RNA of internal control gene GAPDH were determined by real-time fluorescence qRT-PCR.

[1] = Toxicity experiment of the compound on Huh7.5 (MTT); details: human, CC50, Huh7.5 cells, 72 hrs, MTT, half toxic concentration by Reed-Muench method
Protocol: as §1, §2

Structure (SMILES)	CC50 (Huh7.5 cells) [µM]	EC50 (HCV) [µM]	further results
CCc1cccc2c1N(C)Cc1cc(OCc3cn(CCN)nn3)c(OCc3cn(CCN)nn3)cc1-2 [Compound 10q, 4-ethyl-5-methyl-8,9-bis[1-(2-amino-ethyl)-1H-[1,2,3]triazol-4-ylmethoxy]-5,6-dihydro-phenanthridine]	–	–	activation of the reporter gene systems of classical Wnt signaling pathway (Wnt signaling pathway; in the way of depending on Wnt3a receptors): activate the reporter gene systems of classical Wnt signaling pathway; Concentration of compounds for doubly synergetic activating Wnt reporter gene (Wnt signaling pathway; reporter gene, with Wnt3a conditioned medium): 1.25 µM; melting point: 196 to 197 °C
C=Cc1cccc2c1N(C)Cc1cc(OCc3cccc(OC)c3OC)c(OCc3cccc(OC)c3OC)cc1-2 [Compound 11f, 4-ethenyl-5-methyl-8,9-di(2,3-dimethoxy)benzyloxy-5,6-dihydro-phenanthridine]	32.9 ± 1.28	0.3 ± 0.01	–
C=Cc1cccc2c1N(C)Cc1cc(OCc3ccc(C#N)cc3)c(OCc3ccc(C#N)cc3)cc1-2 [Compound 11g, 4-ethenyl-5-methyl-8,9-di(4-cyano)benzyloxy-5,6-dihydro-phenanthridine]	25.9 ± 0.82	> 0.37	–
C=Cc1cccc2c1N(C)Cc1cc(OC(=O)CCCC)c(OC(=O)CCCC)cc1-2 [Compound 11k, 4-ethenyl-5-methyl-8,9-divaleryoxy-5,6-dihydro-phenanthridine]	> 100	0.94 ± 0.02	–
C=Cc1cccc2c1N(C)Cc1cc(OC(=O)c3ccc(Br)cc3)c(OC(=O)c3ccc(Br)cc3)cc1-2 [Compound 11n, 4-ethenyl-5-methyl-8,9-di(4-bromo)benzoyloxy-5,6-dihydro-phenanthridine]	82.6 ± 3.28	4.58 ± 0.55	–
CCC[C@H](NC(=O)[C@@H]1[C@H]2CCC[C@H]2CN1C(=O)[C@@H](NC(=O)[C@@H](NC(=O)c1cnccn1)C1CCCCC1)C(C)(C)C)C(=O)C(=O)NC1CC1 [VX-950, telaprevir, reference compound]	–	–	CC50 at 72 h [1]: 39.5 ± 4.9 µM; CC50 (Huh7.5 cells; Huh7.5 cells, 72 hrs, MTT, half toxic concentration by Reed-Muench method): 32.5 ± 0.58 µM
